Test results published in ChEMBL document CHEMBL1201861, “Genomics of Drug Sensitity in Cancer screening data, Wellcome Trust Sanger Institute”.

Assays:
Assay in all cases: cells
IST-MEL1 = type: functional, cell-based, Homo sapiens; settings: Homo sapiens, IST-MEL1;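 further: growth inhibition of the cell line, read out with a cell viability assay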
MZ2-MEL = type: functional, cell-based, Homo sapiens; settings: Homo sapiens, MZ2-MEL;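 further: growth inhibition of MZ2-MEL cells read out with a cell viability assay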
BT-474 = type: functional, cell-based, Homo sapiens; settings: Homo sapiens, BT-474
ACN = type: functional, cell-based, Homo sapiens; settings: Homo sapiens, ACN;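 further: growth inhibition of the human ACN cell line, read out via cell viability testing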
LS-411N = type: functional, cell-based, Homo sapiens; settings: Homo sapiens, LS-411N
SW 954 = type: functional, cell-based, Homo sapiens; settings: Homo sapiens, SW 954;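 further: growth inhibition of SW954 human cancer cells, read out as cell viability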
HEL = type: functional, cell-based, Homo sapiens; settings: Homo sapiens, HEL;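 further: growth inhibition of HEL cells, read out with a cell viability assay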
RPMI-8226 = type: functional, cell-based, Homo sapiens; settings: Homo sapiens, RPMI-8226
EM-2 = type: functional, cell-based, Homo sapiens; settings: Homo sapiens, EM-2;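 further: growth inhibition of EM-2 cells, read out with a cell viability assay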
MPP-89 = type: functional, cell-based, Homo sapiens; settings: Homo sapiens, MPP-89;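 further: growth inhibition of human MPP-89 cells, read out with a cell viability assay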
KNS-81-FD = type: functional, cell-based, Homo sapiens; settings: Homo sapiens, KNS-81-FD;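 further: growth inhibition of KNS-81-FD cells, read out with a cell viability assay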
KE-37 = type: functional, cell-based, Homo sapiens; settings: Homo sapiens, KE-37;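 further: growth inhibition of KE-37 cells, read out with a cell viability assay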
CGTH-W-1 = type: functional, cell-based, Homo sapiens; settings: Homo sapiens, CGTH-W-1;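 further: growth inhibition of human CGTH-W-1 cells measured by cell viability assay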
OCUB-M = type: functional, cell-based, Homo sapiens; settings: Homo sapiens, OCUB-M;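 further: growth inhibition of the cancer cell line, read out through a cell viability assay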
A498 = type: functional, cell-based, Homo sapiens; settings: Homo sapiens, A498;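 further: growth inhibition of human A498 cells, read out with a cell viability assay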
NCI-H209 = type: functional, cell-based, Homo sapiens; settings: Homo sapiens, NCI-H209;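 further: growth inhibition of human NCI-H209 cells, measured by a cell viability assay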
KM-H2 = type: functional, cell-based, Homo sapiens; settings: Homo sapiens, KM-H2;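 further: growth inhibition of KM-H2 cells, read out by a cell viability assay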
LC-2-ad = type: functional, cell-based, Homo sapiens; settings: Homo sapiens, LC-2-ad;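 further: growth inhibition of human LC-2-ad cells, read out with a cell viability assay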
EW-3 = type: functional, cell-based, Homo sapiens; settings: Homo sapiens, EW-3;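 further: cell viability assay read-out, IC50 reflects inhibition of growth of the EW-3 cells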
MZ7-mel = type: functional, cell-based, Homo sapiens; settings: Homo sapiens, MZ7-mel;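 further: growth inhibition of human MZ7-mel cells, measured by a cell viability assay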
TK-10 = type: functional, cell-based, Homo sapiens; settings: Homo sapiens, TK-10;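 further: growth inhibition of TK-10 cells, read out in a cell viability assay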
LB996-RCC = type: functional, cell-based, Homo sapiens; settings: Homo sapiens, LB996-RCC
NB10 = type: functional, cell-based, Homo sapiens; settings: Homo sapiens, NB10;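 further: growth inhibition of NB10 cells, read out by a cell viability assay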
NEC8 = type: functional, cell-based, Homo sapiens; settings: Homo sapiens, NEC8;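 further: growth inhibition of human NEC8 cells, read out by a cell viability assay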
A704 = type: functional, cell-based, Homo sapiens; settings: Homo sapiens, A704;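 further: growth inhibition of human A704 cells, read out with a cell viability assay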
PSN1 = type: functional, cell-based, Homo sapiens; settings: Homo sapiens, PSN1;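 further: suppression of growth of human PSN1 cells, read out by a cell viability assay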
NCI-H226 = type: functional, cell-based, Homo sapiens; settings: Homo sapiens, NCI-H226;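 further: cell viability read-out used to gauge growth inhibition of the cells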
GT3TKB = type: functional, cell-based, Homo sapiens; settings: Homo sapiens, GT3TKB;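 further: growth inhibition of the cell line, read out with a cell viability assay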
ES1 = type: functional, cell-based, Homo sapiens; settings: Homo sapiens, ES1;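 further: growth inhibition of ES1 cells, read out with a cell viability assay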
KINGS-1 = type: functional, cell-based, Homo sapiens; settings: Homo sapiens, KINGS-1;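 further: cell viability assay measuring suppression of KINGS-1 cell growth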
no-11 = type: functional, cell-based, Homo sapiens; settings: Homo sapiens;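 further: growth inhibition of human NO-11 cells, read out with a cell viability assay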
ES8 = type: functional, cell-based, Homo sapiens; settings: Homo sapiens, ES8;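 further: growth inhibition of human ES8 cells, read out with a cell viability assay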
KMOE-2 = type: functional, cell-based, Homo sapiens; settings: Homo sapiens, KMOE-2;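 further: growth inhibition of human KMOE-2 cells, read out with a cell viability assay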
SK-MEL-2 = type: functional, cell-based, Homo sapiens; settings: Homo sapiens, SK-MEL-2;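 further: growth inhibition of human SK-MEL-2 cells measured with a cell viability assay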
SHP77 = type: functional, cell-based, Homo sapiens, SHP-77; settings: Homo sapiens, SHP77;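 further: growth inhibition of human SHP-77 cells measured by a cell viability assay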
SW684 = type: functional, cell-based, Homo sapiens; settings: Homo sapiens, SW684;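 further: growth inhibition of human SW684 cells, measured by a cell viability assay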
D-502MG = type: functional, cell-based, Homo sapiens; settings: Homo sapiens, D-502MG
SH-4 = type: functional, cell-based, Homo sapiens; settings: Homo sapiens, SH-4;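 further: growth inhibition of SH-4 cells, read out with a cell viability assay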
ALL-PO = type: functional, cell-based, Homo sapiens; settings: Homo sapiens, ALL-PO;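 further: growth inhibition of ALL-PO cells, read out by a cell viability assay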
SF-268 = type: functional, cell-based, Homo sapiens; settings: Homo sapiens, SF-268;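 further: growth inhibition of SF-268 cells determined with a cell viability assay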
HOP-62 = type: functional, cell-based, Homo sapiens; settings: Homo sapiens, HOP-62;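 further: cell growth inhibition determined with a viability assay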
COLO-668 = type: functional, cell-based, Homo sapiens; settings: Homo sapiens, COLO-668
MFH-ino = type: functional, cell-based, Homo sapiens; settings: Homo sapiens, MFH-ino;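 further: growth inhibition of human MFH-ino cells, read out by a cell viability assay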
SW982 = type: functional, cell-based, Homo sapiens; settings: Homo sapiens, SW982;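 further: growth inhibition of SW982 cells, read out with a cell viability assay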
U-87 MG = type: functional, cell-based, Homo sapiens, U-87MG ATCC; settings: Homo sapiens, U-87 MG;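 further: growth inhibition of the cells measured with a viability assay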
GAK = type: functional, cell-based, Homo sapiens; settings: Homo sapiens, GAK;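 further: cell growth inhibition read out by a cell viability assay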
EW-16 = type: functional, cell-based, Homo sapiens; settings: Homo sapiens, EW-16;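 further: growth inhibition of human EW-16 cells, read out as cell viability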
BB30-HNC = type: functional, cell-based, Homo sapiens; settings: Homo sapiens, BB30-HNC;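 further: growth inhibition of the cultured cell line, read out by a cell viability assay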

CCN(CC)CCNC(=O)c1c(C)[nH]c(/C=C2\C(=O)Nc3ccc(F)cc32)c1C [SUNITINIB] gave an IC50 (IST-MEL1) of over 8000 nM, an IC50 (MZ2-MEL) of over 8000 nM and an IC50 (BT-474) of over 8000 nM. It also gave an IC50 (ACN) of over 8000 nM, an IC50 (LS-411N) of over 8000 nM and an IC50 (SW 954) of 6280 nM. The IC50 (HEL) was 3480 nM, the IC50 (RPMI-8226) was 7510 nM and the IC50 (EM-2) was over 8000 nM. The IC50 (MPP-89) was over 8000 nM, the IC50 (KNS-81-FD) was over 8000 nM and the IC50 (KE-37) was 4060 nM. The IC50 (CGTH-W-1) was 30.9 nM, the IC50 (OCUB-M) was over 8000 nM and the IC50 (A498) was over 8000 nM. For the same molecule, the IC50 (NCI-H209) was over 8000 nM, the IC50 (KM-H2) was over 8000 nM and the IC50 (LC-2-ad) was 1110 nM. For the same molecule, the IC50 (EW-3) was 6430 nM, the IC50 (MZ7-mel) was over 8000 nM and the IC50 (TK-10) was over 8000 nM. For the same molecule, the IC50 (LB996-RCC) was 4120 nM, the IC50 (NB10) was over 8000 nM and the IC50 (NEC8) was over 8000 nM. It also gave an IC50 (A704) of over 8000 nM, an IC50 (PSN1) of 1510 nM and an IC50 (NCI-H226) of over 8000 nM. The IC50 (GT3TKB) was 6610 nM, the IC50 (ES1) was over 8000 nM and the IC50 (KINGS-1) was over 8000 nM. For the same molecule, the IC50 (no-11) was 7780 nM, the IC50 (ES8) was over 8000 nM and the IC50 (KMOE-2) was over 8000 nM. It also gave an IC50 (SK-MEL-2) of over 8000 nM, an IC50 (SHP77) of over 8000 nM and an IC50 (SW684) of over 8000 nM. It also gave an IC50 (D-502MG) of over 8000 nM, an IC50 (SH-4) of 5480 nM and an IC50 (ALL-PO) of 79.9 nM. It also gave an IC50 (SF-268) of 3330 nM, an IC50 (HOP-62) of 4340 nM and an IC50 (COLO-668) of over 8000 nM. The IC50 (MFH-ino) was over 8000 nM, the IC50 (SW982) was 4550 nM and the IC50 (U-87 MG) was over 8000 nM. For the same molecule, the IC50 (GAK) was […] and the IC50 (EW-16) was 2140 nM.
Cc1ccc(-c2c(C(=O)CCl)n(CCCO)c3ncnc(N)c23)cc1 was tested, and the IC50 (IST-MEL1) was over 4000 nM, the IC50 (MZ2-MEL) was over 4000 nM and the IC50 (BT-474) was over 4000 nM. The IC50 (ACN) was over 4000 nM, the IC50 (LS-411N) was over 4000 nM and the IC50 (SW 954) was over 4000 nM. For the same molecule, the IC50 (HEL) was over 4000 nM, the IC50 (RPMI-8226) was over 4000 nM and the IC50 (EM-2) was over 4000 nM. It also gave an IC50 (MPP-89) of over 4000 nM, an IC50 (KNS-81-FD) of over 4000 nM and an IC50 (KE-37) of over 4000 nM. The IC50 (CGTH-W-1) was over 4000 nM, the IC50 (OCUB-M) was over 4000 nM and the IC50 (A498) was over 4000 nM. It also gave an IC50 (NCI-H209) of over 4000 nM, an IC50 (KM-H2) of over 4000 nM and an IC50 (LC-2-ad) of 2740 nM. For the same molecule, the IC50 (EW-3) was over 4000 nM, the IC50 (MZ7-mel) was over 4000 nM and the IC50 (TK-10) was 1950 nM. For the same molecule, the IC50 (LB996-RCC) was over 4000 nM, the IC50 (NB10) was over 4000 nM and the IC50 (NEC8) was over 4000 nM. For the same molecule, the IC50 (A704) was over 4000 nM, the IC50 (PSN1) was 2770 nM and the IC50 (NCI-H226) was over 4000 nM. For the same molecule, the IC50 (GT3TKB) was over 4000 nM, the IC50 (ES1) was over 4000 nM and the IC50 (KINGS-1) was over 4000 nM. For the same molecule, the IC50 (no-11) was over 4000 nM, the IC50 (ES8) was over 4000 nM and the IC50 (KMOE-2) was over 4000 nM. It also gave an IC50 (SK-MEL-2) of over 4000 nM, an IC50 (SHP77) of over 4000 nM and an IC50 (SW684) of over 4000 nM. The IC50 (D-502MG) was over 4000 nM, the IC50 (SH-4) was over 4000 nM and the IC50 (ALL-PO) was over 4000 nM. For the same molecule, the IC50 (SF-268) was over 4000 nM, the IC50 (HOP-62) was over 4000 nM and the IC50 (COLO-668) was over 4000 nM. It also gave an IC50 (MFH-ino) of over 4000 nM, an IC50 (SW982) of 1310 nM and an IC50 (BB30-HNC) of 1820 nM. For the same molecule, the IC50 (U-87 MG) was over 4000 nM, the IC50 (GAK) was over 4000 nM and the IC50 (EW-16) was over 4000 nM.
For OCCCNc1cc(-c2ccnc(Nc3cccc(Cl)c3)n2)ccn1, the IC50 (IST-MEL1) was 126 nM, the IC50 (MZ2-MEL) was 62.7 nM and the IC50 (BT-474) was over 256 nM. It also gave an IC50 (ACN) of 165 nM, an IC50 (LS-411N) of 37.9 nM and an IC50 (SW 954) of 170 nM. The IC50 (HEL) was 114 nM, the IC50 (RPMI-8226) was 129 nM and the IC50 (EM-2) was 176 nM. It also gave an IC50 (MPP-89) of 90.4 nM, an IC50 (KNS-81-FD) of over 256 nM and an IC50 (KE-37) of 81.8 nM. It also gave an IC50 (CGTH-W-1) of 79.8 nM, an IC50 (OCUB-M) of 52.5 nM and an IC50 (A498) of over 256 nM. The IC50 (NCI-H209) was 135 nM, the IC50 (KM-H2) was over 256 nM and the IC50 (LC-2-ad) was 16.6 nM. It also gave an IC50 (EW-3) of over 256 nM, an IC50 (MZ7-mel) of over 256 nM and an IC50 (TK-10) of 57 nM. It also gave an IC50 (LB996-RCC) of 32.5 nM, an IC50 (NB10) of over 256 nM and an IC50 (NEC8) of over 256 nM. It also gave an IC50 (A704) of over 256 nM, an IC50 (PSN1) of 15.2 nM and an IC50 (NCI-H226) of 213 nM. The IC50 (GT3TKB) was 59 nM, the IC50 (ES1) was over 256 nM and the IC50 (KINGS-1) was 103 nM. For the same molecule, the IC50 (no-11) was 29.3 nM, the IC50 (ES8) was over 256 nM and the IC50 (KMOE-2) was over 256 nM. It also gave an IC50 (SK-MEL-2) of over 256 nM, an IC50 (SHP77) of 155 nM and an IC50 (SW684) of over 256 nM. The IC50 (D-502MG) was over 256 nM, the IC50 (SH-4) was over 256 nM and the IC50 (ALL-PO) was 80 nM. It also gave an IC50 (SF-268) of 42.2 nM, an IC50 (HOP-62) of 41.2 nM and an IC50 (COLO-668) of 236 nM. The IC50 (MFH-ino) was 80.7 nM, the IC50 (SW982) was 25.4 nM and the IC50 (BB30-HNC) was 52.5 nM. For the same molecule, the IC50 (U-87 MG) was over 256 nM, the IC50 (GAK) was over 256 nM and the IC50 (EW-16) was 32.8 nM.
